Tested on: HbF
Assay: Erythroid differentiation and HbF detection by flow cytometry
Assay type: cell-based, human
Conditions: erythroid differentiation, flow cytometry (days 7 and 14 collected; day of the values not stated); UNC0638 at 0.5 μM
Experimental: The present teachings (herein also referred to as TRIAMF for brevity) were applied for the delivery of RNPs consisting of guides targeting the HBG […] to recapitulate the genotype of a form of hereditary persistent fetal hemoglobin found in many patients. […] Through a combination of next generation sequencing (NGS) and quantitative PCR (qPCR), editing efficiency at the target site was determined to be a total average of 63% total editing.
FIG. 20 depicts percentage of HbF cells at D7 and D14 of erythroid differentiation protocol of WT, mock treated, HBG edited, and UNC0638 (Blood. 2015, July 30:126(5):665-72) positive control treated cells. Cells were analyzed by fixation and staining of CD235a,CD71, and HbF. The cells were collected on days 7 and 14 and stained with CD235a, CD71, and fetal hemoglobin, and analyzed with flow cytometry. […]

`COc1cc2c(NC3CCN(C(C)C)CC3)nc(C3CCCCC3)nc2cc1OCCCN1CCCC1` [UNC0638] was tested, and the “cells expressed HbF” value was 92%.

Reference: patent US20190203230A1, “POROUS MEMBRANE-BASED MACROMOLECULE DELIVERY SYSTEM” (NOVARTIS AG, priority 2016, published 2019)
